Test results reported in patent US20250311727A1, “SUBSTITUTED 2-AMINOAZINES AND SALTS THEREOF, AND USE THEREOF AS HERBICIDAL ACTIVE SUBSTANCES” (BAYER AKTIENGESELLSCHAFT, priority 2022, published 2025).

Assays:
Format in all cases: in vivo
[1] = tested on: Veronica persica; assay: Post-emergence herbicidal efficacy at 320 g/ha, VERPE; details: rated visually after about 3 weeks vs untreated controls, 100% = plants have died
Method in brief: (§1)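 Effects are visual ratings taken about three weeks after foliar application, scaled from 0% (as untreated control) to 100% (plants died). Application was at the one-leaf stage in greenhouse-grown pots.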

[2] = tested on: Alopecurus myosuroides; assay: Post-emergence herbicidal efficacy at 320 g/ha, ALOMY; details: rated visually after about 3 weeks vs untreated controls, 100% = plants have died
Method in brief: as §1

[3] = tested on: Veronica persica; assay: Pre-emergence herbicide efficacy at 320 g/ha, VERPE; details: scored visually after about 3 weeks vs untreated controls, 100% = plants have died
Method in brief: (§2)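 Visual scores, given as percent of untreated controls (0% = no effect, 100% = dead plants), were taken about 3 weeks after treatment under greenhouse conditions. Treatment was a pre-emergence soil-surface application of WP or EC formulation at 320 g/ha, made up in 600 L/ha water plus 0.5% additive, over seeds covered in sandy loam.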

[4] = tested on: Abutilon theophrasti; assay: Pre-emergence herbicide efficacy at 320 g/ha, ABUTH; details: scored visually after about 3 weeks vs untreated controls, 100% = plants have died
Method in brief: as §2

[5] = tested on: Amaranthus retroflexus; assay: Pre-emergence herbicide efficacy at 320 g/ha, AMARE; details: scored visually after about 3 weeks vs untreated controls, 100% = plants have died
Method in brief: as §2

[6] = tested on: Digitaria sanguinalis; assay: Post-emergence herbicidal efficacy at 320 g/ha, DIGSA; details: rated visually after about 3 weeks vs untreated controls, 100% = plants have died
Method in brief: as §1

[7] = tested on: Poa annua; assay: Post-emergence herbicidal efficacy at 320 g/ha, POAAN; details: rated visually after about 3 weeks vs untreated controls, 100% = plants have died
Method in brief: as §1

[8] = tested on: Polygonum convolvulus; assay: Post-emergence herbicidal efficacy at 80 g/ha, POLCO; details: rated visually after about 3 weeks vs untreated controls, 100% = plants have died
Description: (§3) Unwanted plants/weeds: • ABUTH: Abutilon theophrasti • ALOMY: Alopecurus myosuroides • AMARE: Amaranthus retroflexus • DIGSA: Digitaria sanguinalis • ECHCG: Echinochloa crus-galli • KCHSC: Kochia scoparia • LOLRI: Lolium rigidum • MATIN: Matricaria inodora • POAAN: Poa annua • POLCO: Polygonum convolvulus • SETVI: Setaria viridis • STEME: Stellaria media • VERPE: Veronica persica • VIOTR: Viola tricolor A. Post-Emergence Herbicidal Efficacy at 320 g/ha
Seeds of monocotyledonous and dicotyledonous weeds and crop plants were placed in sandy loam in plastic or organic planting pots, covered with soil and cultivated in a greenhouse under controlled growth conditions. 2 to 3 weeks after sowing, the test plants were treated at the one-leaf stage. The compounds of the invention, formulated in the form of wettable powders (WP) or as emulsion concentrates (EC), were then sprayed onto the green parts of the plants as aqueous suspension or emulsion with addition of 0.5% additive at a water application rate of 600 l/ha (converted). After the test plants had been kept in the greenhouse under optimum growth conditions for about 3 weeks, the activity of the preparations was rated visually in comparison to untreated controls. For example, 100% activity=the plants have died, 0% activity=like control plants. […]

[9] = tested on: Digitaria sanguinalis; assay: Pre-emergence herbicide efficacy at 320 g/ha, DIGSA; details: scored visually after about 3 weeks vs untreated controls, 100% = plants have died
Method in brief: as §2

[10] = tested on: Abutilon theophrasti; assay: Post-emergence herbicidal efficacy at 320 g/ha, ABUTH; details: rated visually after about 3 weeks vs untreated controls, 100% = plants have died
Method in brief: as §1

[11] = tested on: Setaria viridis; assay: Pre-emergence herbicide efficacy at 320 g/ha, SETVI; details: scored visually after about 3 weeks vs untreated controls, 100% = plants have died
Method in brief: as §2

[12] = tested on: Viola tricolor; assay: Pre-emergence herbicide efficacy at 80 g/ha, VIOTR
Method in brief: (§4)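 Visual % activity scored after roughly 3 weeks in the greenhouse against untreated pots, 100% meaning dead plants and 0% like controls. Treatment was soil-surface application right after sowing, at 80 g/ha. Formulated as WP or EC in water at 600 l/ha with 0.5% additive.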

[13] = tested on: Kochia scoparia; assay: Post-emergence herbicidal efficacy at 320 g/ha, KCHSC; details: rated visually after about 3 weeks vs untreated controls, 100% = plants have died
Method in brief: as §1

[14] = tested on: Veronica persica; assay: Pre-emergence herbicide efficacy at 80 g/ha, VERPE
Method in brief: as §4

[15] = tested on: Stellaria media; assay: Pre-emergence herbicide efficacy at 320 g/ha, STEME; details: scored visually after about 3 weeks vs untreated controls, 100% = plants have died
Method in brief: as §2

[16] = tested on: Amaranthus retroflexus; assay: Post-emergence herbicidal efficacy at 320 g/ha, AMARE; details: rated visually after about 3 weeks vs untreated controls, 100% = plants have died
Method in brief: as §1

[17] = tested on: Kochia scoparia; assay: Pre-emergence herbicide efficacy at 320 g/ha, KCHSC; details: scored visually after about 3 weeks vs untreated controls, 100% = plants have died
Method in brief: as §2

[18] = tested on: Stellaria media; assay: Post-emergence herbicidal efficacy at 320 g/ha, STEME; details: rated visually after about 3 weeks vs untreated controls, 100% = plants have died
Method in brief: as §1

[19] = tested on: Veronica persica; assay: Post-emergence herbicidal efficacy at 80 g/ha, VERPE; details: rated visually after about 3 weeks vs untreated controls, 100% = plants have died
Method in brief: (§5)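 Visual rating against untreated plants, about 3 weeks after treatment, on a 0–100% scale where 100% means dead plants. Compounds were formulated as WP or EC with 0.5% additive and applied at 600 l/ha water onto one-leaf-stage greenhouse weeds, sown 2–3 weeks earlier in sandy loam.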

[20] = tested on: Alopecurus myosuroides; assay: Post-emergence herbicidal efficacy at 80 g/ha, ALOMY; details: rated visually after about 3 weeks vs untreated controls, 100% = plants have died
Description: as §3
(§6) Seeds of monocotyledonous and dicotyledonous weeds and crop plants were placed in sandy loam in plastic or organic planting pots, covered with soil and cultivated in a greenhouse under controlled growth conditions. 2 to 3 weeks after sowing, the test plants were treated at the one-leaf stage. The compounds of the invention, formulated in the form of wettable powders (WP) or as emulsion concentrates (EC), were then sprayed onto the green parts of the plants as aqueous suspension or emulsion with addition of 0.5% additive at a water application rate of 600 l/ha (converted). After the test plants had been kept in the greenhouse under optimum growth conditions for about 3 weeks, the activity of the preparations was rated visually in comparison to untreated controls. For example, 100% activity=the plants have died, 0% activity=like control plants.
(§7) Tables B1 to B11 below show the effects of selected compounds of the general formula (I) according to Table 1 on various harmful plants and an application rate corresponding to 80 g/ha, which were obtained by the experimental procedure mentioned above.

[21] = tested on: Polygonum convolvulus; assay: Pre-emergence herbicide efficacy at 80 g/ha, POLCO; details: scored visually after about 3 weeks vs untreated controls, 100% = plants have died
Method in brief: as §4

[22] = tested on: Abutilon theophrasti; assay: Post-emergence herbicidal efficacy at 80 g/ha, ABUTH; details: rated visually after about 3 weeks vs untreated controls, 100% = plants have died
Description: as §3, §6, §7

[23] = tested on: Amaranthus retroflexus; assay: Pre-emergence herbicide efficacy at 80 g/ha, AMARE; details: scored visually after about 3 weeks vs untreated controls, 100% = plants have died
Method in brief: as §4

[24] = tested on: Poa annua; assay: Pre-emergence herbicide efficacy at 320 g/ha, POAAN; details: scored visually after about 3 weeks vs untreated controls, 100% = plants have died
Method in brief: as §2

[25] = tested on: PHBPU; assay: Post-emergence herbicidal efficacy at 80 g/ha, PHBPU; details: rated visually after about 3 weeks vs untreated controls, 100% = plants have died
Protocol: as §6, with “plants. Tables B1 to B11 below show the effects of selected compounds of the general formula (I) according to Table 1 on various harmful plants and an application rate corresponding to 80 g/ha, which were obtained by the experimental procedure mentioned above.” for “plants.”

[26] = tested on: Setaria viridis; assay: Pre-emergence herbicide efficacy at 80 g/ha, SETVI
Method in brief: as §4

[27] = tested on: Amaranthus retroflexus; assay: Post-emergence herbicidal efficacy at 80 g/ha, AMARE; details: rated visually after about 3 weeks vs untreated controls, 100% = plants have died
Method in brief: as §5

`FC(F)c1cc(-c2ccccc2Nc2ncc(Cl)cn2)on1` [Example 1-31] was tested, and the “Post-emergence efficacy at 320 g/ha against VERPE in %” value [1] was 100%, the “Post-emergence efficacy at 320 g/ha against ALOMY in %” value [2] was 100% and the “Pre-emergence efficacy at 320 g/ha against VERPE in %” value [3] was 100%. The “Pre-emergence efficacy at 320 g/ha against ABUTH in %” value [4] was 90%, the “Pre-emergence efficacy at 320 g/ha against AMARE in %” value [5] was 100% and the “Post-emergence efficacy at 320 g/ha against DIGSA in %” value [6] was 100%. For the same compound, the “Post-emergence efficacy at 320 g/ha against POAAN in %” value [7] was 100%, the “Post-emergence efficacy at 80 g/ha against POLCO in %” value [8] was 100% and the “Pre-emergence efficacy at 320 g/ha against DIGSA in %” value [9] was 100%. The “Post-emergence efficacy at 320 g/ha against ABUTH in %” value [10] was 100%, the “Pre-emergence efficacy at 320 g/ha against SETVI in %” value [11] was 100% and the “Pre-emergence efficacy against VIOTR” value [12] was 90%. For the same compound, the “Post-emergence efficacy at 320 g/ha against KCHSC in %” value [13] was 100%, the “Pre-emergence efficacy against VERPE” value [14] was 90% and the “Pre-emergence efficacy at 320 g/ha against STEME in %” value [15] was 100%. For the same compound, the “Post-emergence efficacy at 320 g/ha against AMARE in %” value [16] was 100%, the “Pre-emergence efficacy at 320 g/ha against KCHSC in %” value [17] was 90% and the “Post-emergence efficacy at 320 g/ha against STEME in %” value [18] was 100%. The “Post-emergence efficacy at 80 g/ha against VERPE in %” value [19] was 90%, the “Post-emergence efficacy at 80 g/ha against ALOMY in %” value [20] was 80% and the “Pre-emergence efficacy at 80 g/ha against POLCO in %” value [21] was 80%. For the same compound, the “Post-emergence efficacy at 80 g/ha against ABUTH in %” value [22] was 80%, the “Pre-emergence efficacy at 80 g/ha against AMARE in %” value [23] was 100% and the “Pre-emergence efficacy at 320 g/ha against POAAN in %” value [24] was 100%. For the same compound, the “Post-emergence efficacy at 80 g/ha against PHBPU in %” value [25] was 80%, the “Pre-emergence efficacy against SETVI” value [26] was 100% and the “Post-emergence efficacy at 80 g/ha against AMARE in %” value [27] was 90%.
